{
  "source": "patent EP4745242A1",
  "about": "“NUCLEIC ACID VECTOR, NUCLEIC ACID DRUG, PREPARATION METHOD THEREFOR, AND USE THEREOF” (Bai Yao Zhi Da (Beijing) Nanobio Technology Co., Ltd., priority 2023, dated 2025)",
  "test": "Example 41: body weight and clinical observations",
  "type": "in vivo, BALB/cCrSlcNifdc mice",
  "conditions": "for Individual animal body weight: single mouse per group",
  "procedure": "• a) General clinical observations: The clinical condition of mice was observed three times per week during the study, including assessment of tumor nodule ulceration, general appearance/behavior, coat condition, and food intake. • b) Body weight: Mouse body weight was recorded three times per week. • c) Tumor volume: Tumor volume was measured three times per week using vernier calipers. The longest diameter (length) and the perpendicular short diameter (width) were measured, and tumor volume was calculated as: Volume = 0.5 × length × (short diameter)^2. […] The tumor-weight inhibition rate (IRTW, %) was calculated, taking IRTW% > 60% as a reference indicator of efficacy. The calculation is as follows: IRTW(%) = (Wvehicle control−Wtreatment)/Wvehicle control × 100, [formula] where W denotes tumor weight.",
  "data": [
    {"molecule": "COc1cccc2c1C(=O)c1c(O)c3c(c(O)c1C2=O)C[C@@](O)(C(=O)CO)C[C@@H]3O[C@H]1C[C@H](N)[C@@H](O)[C@H](C)O1", "note": "[F, epirubicin]", "values": [
      {"measurement": "Animal body weight, D26", "setting": "one animal per group, D26, 26 days after tumor cell injection, in g (unit assumed)", "result": 26.81},
      {"measurement": "Change in body weight (g)", "setting": "one animal per group, before administration to D26", "result": "+6.39 g"},
      {"measurement": "Animal body weight, Before administration", "setting": "one animal per group, tail-vein injection once weekly, total 2 administrations, before administration", "result": 20.42},
      {"measurement": "Individual animal body weight", "setting": "DAY 12, in g (unit assumed)", "result": 20.42},
      {"measurement": "Individual animal body weight", "setting": "DAY 14, in g (unit assumed)", "result": 22.15},
      {"measurement": "Individual animal body weight", "setting": "DAY 17, in g (unit assumed)", "result": 23.68},
      {"measurement": "Individual animal body weight", "setting": "DAY 19, in g (unit assumed)", "result": 25.41},
      {"measurement": "Individual animal body weight", "setting": "DAY 21, in g (unit assumed)", "result": 26.51},
      {"measurement": "Individual animal body weight", "setting": "DAY 24, in g (unit assumed)", "result": 29.19},
      {"measurement": "Individual animal body weight", "setting": "DAY 26, in g (unit assumed)", "result": 26.81}
    ]}
  ]
}
